Experimental data: the OPERA property sets (Mansouri et al. 2018)

Conditions: for log10 biotransformation half-life (days) / log10 BCF: fish

Row | SMILES | melting point [°C] | boiling point [°C] | further results
1 | O=C(O)c1cc(-c2ccc(F)cc2F)ccc1O | 216 |  | 
2 | O=C(O)c1c(F)c(F)c(F)c(F)c1F | 101 | 220 | 
3 | CCOCC(C)O (centres undefined) |  | 131 | 
4 | C#CC(C)(C)N | 18 | 79.5 | 
5 | Ic1ccc(I)s1 | 41.5 |  | 
6 | Cc1cc(N)n(-c2ccccc2)n1 | 116 | 333 | 
7 | O=C(O)[C@H](O)[C@@H](O)[C@H](O)[C@H](O)C(O)CO (some centres undefined) | 146 |  | 
8 | Oc1ccc(C2(c3ccc(O)cc3)CCCCC2)cc1 |  |  | ready biodegradability: not readily biodegradable
9 | CCN1C(=O)c2ccccc2C1Nc1ccc(OCCN2CCCCC2)cc1 (centres undefined) | 106 |  | 
10 | CCC[C@H]1CCCCN1 |  | 166 | 
11 | CCCCCCC(=O)CCCCCC | 33 | 261 | log10 vapour pressure (mmHg): -2.18
12 | O=C(O)CCCCl | 16 |  | 
13 | CSc1nnc(C(C)(C)C)c(=O)n1N | 126 |  | log10 Koc (L/kg): 1.71; log10 vapour pressure (mmHg): -6.36
14 | CC(Cl)C(=O)CCl (centres undefined) |  | 166 | 
15 | Cc1ccc(Cl)cc1O |  |  | ready biodegradability: not readily biodegradable
16 | Nc1ccc(O)c(C(=O)O)c1 | 283 |  | 
17 | CCc1ccc2ccccc2n1 |  | 246 | 
18 | OCCOc1ccc(Cl)cc1Cl |  |  | log10 vapour pressure (mmHg): -3.7
19 | Oc1ccccc1S | 5.5 | 217 | 
20 | CC(C)N(N=O)C(C)C | 48 | 194 | 
21 | CC(C)(C)OOC(=O)c1ccccc1 | 8 |  | ready biodegradability: not readily biodegradable
22 | CCC(CO)(CO)COCC(CC)(CO)CO | 110 |  | ready biodegradability: not readily biodegradable
23 | Cc1ccc2cnccc2c1 | 85.5 | 266 | 

Row | SMILES | melting point [°C] | boiling point [°C] | further results
24 | CCCCCC(C)C(C)C (centres undefined) |  | 164 | 
25 | COP(=O)(O)OC |  | 174 | 
26 | Nc1cc(Cl)cc(C(=O)O)c1Cl | 200 | 312 | log10 Koc (L/kg): 1.48; ready biodegradability: not readily biodegradable
27 | Clc1ccc(-c2cc(Cl)c(Cl)c(Cl)c2Cl)c(Cl)c1 |  |  | log10 biotransformation half-life (days): 2.34
28 | CN1C(=O)CN=C(c2ccccc2F)c2cc([N+](=O)[O-])ccc21 | 166 |  | 
29 | O=C(O)c1cccc2cccc(C(=O)O)c12 | 260 |  | 
30 | Clc1cc(Cl)c2ccccc2c1 | 62.3 | 291 | 
31 | N#Cc1ccc(O)cc1 | 112 |  | ready biodegradability: not readily biodegradable; log10 BCF: 0.91
32 | Fc1cc2c(cc1F)Oc1cc(Cl)c(Cl)cc1O2 | 223 |  | log10 vapour pressure (mmHg): -7.76
33 | Cl.NCc1ccccc1 | 262 |  | 
34 | C=CCCO |  | 114 | 
35 | CCC(CO)CC(C)C (centres undefined) |  |  | log10 vapour pressure (mmHg): -0.625
36 | CCCCCCCCC(C)C | -48.9 | 189 | log10 vapour pressure (mmHg): -0.22; log10 biotransformation half-life (days): 0.1
37 | Cc1cc(O)c(C2CC3CCC2(C)C3(C)C)cc1C (centres undefined) | 95 |  | 
38 | C[Si](C)(Cl)O[Si](C)(C)Cl | -37.5 | 138 | 
39 | CCCCCCCCN | 0 | 180 | log10 vapour pressure (mmHg): -0.0137
40 | ClC1(Cl)CCCCC1 | -47 | 171 | 
41 | COc1cc2c(c(OC)c1OC)-c1ccc(O)c(=O)cc1[C@@H](NC(C)=O)CC2 | 178 |  | 
42 | OCCNC(=S)C(=S)NCCO | 93.3 |  | 
43 | Cc1cc(Cl)ccc1OCC(=O)O | 120 | 287 | log10 Koc (L/kg): 1.73; log10 vapour pressure (mmHg): -5.23; ready biodegradability: not readily biodegradable
44 | CC(=O)NCc1ccccc1 | 61 |  | ready biodegradability: readily biodegradable
45 | c1ccc(Cc2ccc3ccccc3c2)cc1 | 58 | 350 | 
46 | CCC(CC)CC(C)(C)C |  | 147 | 

Row | SMILES | melting point [°C] | boiling point [°C] | further results
47 | CC#CCCCCCC |  | 162 | 
48 | C=C(C)C1CC=C(CO)CC1 (centres undefined) |  | 244 | 
49 | NCC[C@H](O)C(=O)N[C@@H]1C[C@H](N)[C@@H](O[C@H]2O[C@H](CN)[C@@H](O)[C@H](O)[C@H]2O)[C@H](O)[C@H]1O[C@H]1O[C@H](CO)[C@@H](O)[C@H](N)[C@H]1O | 204 |  | 
50 | Nc1ccccc1Nc1ccccc1 | 79.5 | 313 | 
51 | CCCCCCCCc1ccccc1Nc1ccccc1CCCCCCCC |  |  | ready biodegradability: not readily biodegradable
52 | Clc1ccccn1 | -46.5 | 170 | log10 vapour pressure (mmHg): 0.338; ready biodegradability: not readily biodegradable; log10 BCF: 1.28; log10 biotransformation half-life (days): -0.85
53 | c1ccc2c(c1)c1cccc3ccc4cccc2c4c31 | 178 |  | log10 biodegradation half-life (days): 2.56; log10 vapour pressure (mmHg): -8.24
54 | O=C(O)Cc1ccc(O)c(O)c1 | 128 |  | 
55 | NNc1cccc2ccccc12 | 117 |  | 
56 | Cc1ccc2c(ccc3cc4ccccc4cc32)c1 | 156 |  | 
57 | Cc1ccc(NC(=O)N(C)C)cc1 |  |  | log10 Koc (L/kg): 1.51
58 | Cc1cc(Br)ccc1O | 64.7 | 235 | 
59 | COC(=O)CCCCCCCCCCCC(=O)OC | 36 | 332 | 
60 | CCC[Si](Cl)(Cl)Cl |  | 124 | log10 vapour pressure (mmHg): 1.46
61 | O=C1c2c(Br)c(Br)c(Br)c(Br)c2C(=O)N1CCN1C(=O)c2c(Br)c(Br)c(Br)c(Br)c2C1=O | 445 |  | 
62 | CCCCCCCC/C=C\CCCCCCCCN | 246 |  | 
63 | O=C(CBr)c1ccc(Br)cc1 | 111 |  | 
64 | COc1cc(OC)cc(OC)c1 | 54.5 | 256 | 
65 | OCCCc1ccccc1 |  | 235 | log10 Henry constant (atm·m³/mol): -6.69; log10 vapour pressure (mmHg): -1.7
66 | NC(=O)c1cccnc1 | 130 |  | 
67 | O=C1NCNC1(c1ccccc1)c1ccccc1 | 183 |  | 
68 | CCCCC(CC)COC(=O)CCCCCCCCC(=O)OCC(CC)CCCC (centres undefined) | -48 |  | 
69 | CCOCN(C(=O)CCl)c1c(C)cccc1CC |  |  | log10 Koc (L/kg): 2.32

Row | SMILES | melting point [°C] | boiling point [°C] | further results
70 | CC1=CC(=O)OC1=O | 7.5 | 214 | 
71 | COc1c(F)c(F)cc(F)c1F |  | 138 | 
72 | CCCCCCCCCC[N+](C)(C)Cc1ccccc1 |  |  | ready biodegradability: not readily biodegradable
73 | CC(=O)Oc1ccc(OC(C)=O)cc1 | 124 |  | 
74 | CNc1cnn(-c2cccc(C(F)(F)F)c2)c(=O)c1Cl | 184 |  | log10 Koc (L/kg): 3.28; log10 vapour pressure (mmHg): -7.54
75 | O=Cc1ccc(Cl)cc1Cl | 72 | 233 | 
76 | C1CCN(CCN2CCCCC2)CC1 | -0.5 | 265 | 
77 | C=C(C)F |  | -24 | 
78 | NC(=O)NNc1ccccc1 | 172 |  | 
79 | CCCCCCCCCCCCCCCC(=O)OC[C@@H](O)[C@H]1OC[C@H](O)[C@H]1O |  |  | ready biodegradability: readily biodegradable
80 | CCCC(C)CC(C)(C)C (centres undefined) |  | 148 | 
81 | O=C(O)c1ccccc1-c1ccccc1 | 114 | 344 | 
82 | CC[Si](Cl)(CC)CC |  | 144 | log10 vapour pressure (mmHg): 0.83
83 | N#CCCc1ccccc1 | -1 | 261 | 
84 | OCCOc1ccc(N=Nc2ccccc2)cc1 |  |  | log10 vapour pressure (mmHg): -7.67
85 | Cc1c2ccccc2nc2ccccc12 | 118 |  | 
86 | O=C(O)Cc1ccc(O)cc1 | 152 |  | 
87 | C[C@@H]1O[C@@H](O)[C@H](O)[C@H](O)[C@H]1O | 140 |  | 
88 | O=C(OCc1ccco1)c1ccco1 | 27.5 |  | 
89 | CCCCCCCCCCCCC | -5.3 | 235 | log10 biodegradation half-life (days): 1.08; log10 vapour pressure (mmHg): -1.25; ready biodegradability: readily biodegradable; log10 biotransformation half-life (days): 1.03
90 | CN1CCN(CCCN2c3ccccc3Sc3ccc(Cl)cc32)CC1 | 228 |  | 
